Results on 1 substance are retold here after patent publication US8691764B2, “Inhibitors of NF-κB activity” (The Research Foundation for the State University of New York, priority 2007, dated 2014).

Common to all, as to format: cell-based, human
One assay deals with HT-29 cells. Kind of assay: Apoptosis, Cell Death Detection ELISA, HT-29 cells. How it is done:
Apoptosis was determined using the Cell Death Detection ELISA^PLUS assay kit according to the manufacturer's protocol (Roche, Indianapolis, Ind.). Briefly, the cells were treated with either NO-ASA or Dex for 3 h. Cells were harvested and washed three times with PBS. The cell pellet was resuspended with lysis buffer and incubated for 30 min at RT. Cell […] at 200×g for 10 min. The ELISA assay was performed using 20 μl cell lysate and 80 μl Immunoreagent (containing 72 μl Incubation Buffer, 4 μl Anti-histone-biotin Solution, and 4 μl Anti-DNA-POD Solution) per micro-plate well. The micro-plate was covered with an adhesive foil and incubated on a shaker under gentle shaking at 200 rpm for 2 h at RT. The solution in each well was removed thoroughly by tapping and the pellets were rinsed three times with 200 μl Incubation Buffer. […] The absorbance was measured at 405 nm using the SpectraMax micro-plate reader (Molecular Devices, Sunnyvale).
Briefly, annexin 1 cDNA clones (OreGen) or the PCMV6XL5 vector, as a negative control, were transiently transfected into BxPC-3 cells grown to 40-60% confluency using Lipofectamine according to the product protocol (Invitrogen). […] NF-κB activity was subsequently measured by the TransBinding NF-κB Assay Kit and ELISA as described in Example 2. […]
Background: An ELISA detects its analyte on a solid surface through an enzyme-linked reagent.

In assay [1] the test system is NF-κB. Kind of assay: NF-κB activity ELISA, HT-29 cells. Conditions: 3 h.
For the next assay, the system named is annexin 1. Kind of assay: Induction of annexin 1 in BxPC-3 cells, Western blot of nuclear and cytoplasmic extracts. As for the experimental part: The human pancreatic cancer cell line, BxPC-3, or the colon cancer cell line HT-29, both from ATCC (Manassas, Va.) were maintained and grown in RPMI 1640 or McCoy's 5A medium (Cellgro) supplemented with 10% fetal bovine serum (HyClone) and 1% penicillin/streptomycin (Cellgro) in a humidified incubator at 37° C. and 5% CO2.
The cell fractions were obtained as described by Andrews and Faller (N. C. Andrews and D. V. Faller, Nucleic Acids Res. 19:2499 (1991)) with modification. Briefly, the cells were pelleted after treatment and washed three times with PBS. The cell pellets were resuspended in ice cold buffer A (10 mM HEPES, pH 7.9, 10 mM KCl, 1.5 mM MgCI2, 0.5 mM DTT, 0.5 mM PMSF) with protease inhibitor cocktail (Sigma) and incubated on ice for 15 min with occasional mixing by gently tapping the tube. The cell lysates were centrifuged up to 5000 rpm for three times. The supernatants were collected as cytoplasmic extracts. Nuclear pellets were washed with buffer A and resuspended in buffer C (20 mM HEPES, pH 7.9, 450 mM NaCl, 1.5 mM MgCI2, 0.2 mM EDTA, 0.5 mM DTT, 0.5 mM PMSF, 25% Glycerol) with protease inhibitor cocktail (Sigma) and incubated on ice for 30 min with occasional mixing to extract nuclear proteins. Nuclear extracts were cleared by centrifugation (14,800 rpm for 10 min) and the supernatants were collected as nuclear extracts.
For Western blotting, the proteins from both cytoplasmic extracts and nuclear extracts were separated by SDS-polyacrylamide gel electrophoresis and transferred onto PVDF membranes (Millipore). The membranes were blocked in 5% nonfat dry milk-TBS-T (20 mM Tris-HCl, pH 7.5, 500 mM NaCl. 0.3% Tween 20) at room temperature (RT) for an hour and probed with anti-annexin 1, c-IAP-1, c-IAP-2, and TRAF-1 (Santa Cruz Biotechnology, Inc. CA), and anti-Bcl-2 antibodies (Cell Signaling Technology), in 5% nonfat dry milk-TBS-T at 4° C. overnight. The blots were washed three times with TBS-T for 5 min each wash and incubated with horseradish peroxidase-conjugated secondary antibody (Santa Cruz) in 5% nonfat dry milk-TBS-T at RT for an hour. After five washes with TBS-T, the blots were developed with the enhanced chemiluminescence system (ECL™ Western Blotting System, Amersham Biosciences) and exposed to x-ray film according to the manufacturer's instructions. Protein loading was normalized using anti-β-actin antibodies (Santa Cruz Biotechnology, Inc).

Assay [2] has as its system NF-κB. The experiment in a line: EMSA of NF-κB binding to κB probe, nuclear extract of treated BxPC-3 cells. Conditions: BxPC-3 nuclear extract, 3 h. How it is done: The gel shift assays were carried out according to the manufacturer's protocol (Panomics). Nuclear proteins (10 μg) from each sample were mixed with 10 ng biotinylated p65 double-stranded oligonucleotide probes (5′-[…]-3′ and its complement) (SEQ ID NO:9) in the presence of 1 μg Poly(I/C) DNA. The mixture was incubated at room temperature for 30 min. The binding complex was then resolved using a 6% polyacrylamide/glycerol gel in 0.5% Tris-borate-EDTA, transferred onto a nylon membrane, and fixed on the membrane by UV cross-linking The biotin-labeled probe was detected with streptavidin-horseradish peroxidase. Co-immunoprecipitation was performed as follows: about 500 μg of cell extracts were incubated overnight with 5 μg of agarose-conjugated anti-p65 (Santa Cruz Biotechnology) or anti-annexin 1 antibody (Santa Cruz, Calif.). The precipitate was washed five times with washing buffer (Santa Cruz Biotechnology), dissolved in 2× Laemmli buffer, boiled, and separated by SDS-PAGE and detected by Western blot analysis using ECL™ (Amersham Biosciences) as described above. Control experiments were performed by using rabbit IgG for p65 and mouse IgG2b for annexin 1, respectively (Santa Cruz Biotechnology). […]
A general note: In EMSA bound probe runs differently from free probe, usually more slowly.

For nitric oxide-donating aspirin [NO-ASA], the “induced cell apoptosis after knock-down of annexin 1 by specific siRNA” value in the assay with HT-29 cells (HT-29 cells (FIG. 3D)) is given as “completely abrogated”. Also, the cell apoptosis entry in the assay with HT-29 cells (HT-29 cells, 3 h) is given as “induced”. Also, the NF-κB activity entry with NF-κB [1] is recorded as “inhibited NF-κB activity in a concentration-dependent manner”. The “time of maximal annexin 1 levels in the cytoplasm” value with annexin 1 (cytoplasm) is reported as 3 h. Moreover, in the assay with annexin 1 (nuclear and cytoplasmic extracts), the “expression of annexin 1” value is recorded as “induced”. For the same substance, the “time of peak annexin 1 levels in the nucleus” value with annexin 1 (nucleus) was 3 h. The “binding of NF-κB to the DNA probe (EMSA)” value in the assay with NF-κB [2] was “inhibited the binding of NF-κB to the DNA probe in a concentration-dependent manner”. Besides, in the assay on NF-κB [2] (20 μM NO-ASA), the “binding of NF-κB to the DNA probe (EMSA) at 20 μM” value is “substantial suppression of binding”.
